# Literature values, collected in patent US20210393580A1, “PROCYANIDINS FOR THE TREATMENT OF ENDOTHELIAL DYSFUNCTION TRIGGERED BY COVID-19” (priority 2020, published 2021).
# Key:
# [1] = test system: iNOS (inducible nitric oxide synthase)
# [2] = test system: SARS proteases, spike protein and nonstructural proteins (NSP-9, 15); settings: Autodock vina; hydrogen bonds with active site residues, low binding energy
# [3] = test system: wild-type severe acute respiratory syndrome coronavirus (wtSARS-CoV); settings: compounds fractionated from CC; for IC50: read-out: IC50, anti-wtSARS-CoV activity
SMILES,interaction with the SARS viral proteins [2],also measured
"O=C1CCC(Cc2ccc(O)c(O)c2)O1 (stereo not drawn) [M1, δ-(3,4-dihydroxy-phenyl)-γ-valerolactone]",,excessive nitrite production [1]: reducing; iNOS expression [1]: reducing iNOS (inducible nitric oxide synthase) expression
CCc1oc(=O)c(Cc2c(O)c(CC=C(C)C)c(O)c(C(C)=O)c2O)c(O)c1C [arzanol],significant interaction,
COc1cc(/C=C/C(=O)O)ccc1O [ferulic acid],significant interaction,
O=c1c(-c2ccc(O)cc2)coc2cc(O)cc(O)c12 [genistein],significant interaction,
Oc1cc(O)c2c(c1)O[C@@]1(c3ccc(O)c(O)c3)Oc3cc(O)c4c(c3[C@@H]2[C@H]1O)O[C@H](c1ccc(O)c(O)c1)[C@H](O)C4 [procyanidin A2],,"SI, anti-wtSARS-CoV activity [3]: 37.35; IC50 [3]: 29.9 ± 3.3 µM"
Oc1cc(O)c2c(c1)O[C@H](c1ccc(O)c(O)c1)[C@H](O)[C@H]2c1c(O)cc(O)c2c1O[C@H](c1ccc(O)c(O)c1)[C@@H](O)C2 [procyanidin B1],,"SI, anti-wtSARS-CoV activity [3]: 15.69; IC50 [3]: 41.3 ± 3.4 µM"
Oc1ccc(C=Cc2cc(O)cc(O)c2)cc1 [resveratrol],significant interaction,
CC(C)c1cc2c(c(O)c1O)[C@@]13CCCC(C)(C)[C@@H]1[C@H](OC3=O)[C@H]2O [rosmanol],significant interaction,
Cc1cc(O)c(C(C)C)cc1O [thymohydroquinone],significant interaction,
